Test results published in US9776990B2, “Isoindolone derivatives” (AbbVie Inc., priority 2012, dated 2017).
Marks after values point to notes of the source that are not given here.

Tests used:
[1] = test system: OPM-2 human multiple myeloma cancer xenograft; test: Xenograft tumor growth inhibition assay, OPM-2; format: in vivo, mice; conditions: OPM-2 xenograft
Experimental: The effect of the compound of Example 40 to inhibit the growth of Ramos, OPM-2, MX-1, MV4-11, and HT1080 xenograft tumors was evaluated. Briefly, 0.5×10^6 human cancer cells (HT1080), 1×10^6 human cancer cells (Ramos), 5×10^6 human cancer cells (OPM-2, MV4-11) or 1:10 tumor brie (MX-1) (in S-MEM (MEM, Suspension, no Calcium, no Glutamine)) (Life Technologies Corporation) were inoculated subcutaneously into the right hind flank of female SCID or SCID-beige (MV4-11, HT1080) mice (Charles Rivers Labs) on study day 0. Compound was formulated in 2% EtOH, 5% Tween-80, 20% PEG-400, 73% HPMC (Ramos, OPM-2 and MX-1) or 5% DMSO, 5% EtOH, 30% PEG400, 60% Phosal 53 (MV4-11, HT1080). Administration of compound was initiated at the time of size match on day 8 (HT1080), day 17 (MX-1), or day 18 (Ramos, MV4-11, OPM-2). The tumors were measured by a pair of calipers twice a week starting at the time of size match and tumor volumes were calculated according to the formula V=L×W^2/2 (V: volume, mm^3; L: length, mm. W: width, m) Tumor volume was measured for the duration of the experiment until the mean tumor volume in each group reached an endpoint of >1000 mm^3.

Ramos = test: Proliferation panel assay, Ramos; format: cell-based; conditions: Homo sapiens, 120 h, NHL, 5 days, read-out: Cellular Proliferation EC50
Experimental: (§1) The impact of compounds of the Examples on cancer cell proliferation was determined using the breast cancer cell line MX-1 (ATCC) in a 3-day proliferation assay. MX-1 cells were maintained in RPMI supplemented with 10% FBS at 37 C.° and an atmosphere of 5% CO2. For compound testing, MX-1 cells were plated in 96-well black bottom plates at a density of 5000 cells/well in 90 μl of culture media and incubated at 37° overnight to allow cell adhesion and spreading. Compound dilution series were prepared in DMSO via a 3-fold serial dilution from 3 mM to 0.1 μM. […]
(§2) Luminescence readings from the Cell Titer Glo assay were normalized to the DMSO treated cells and analyzed using the GraphPad Prism software with sigmoidal curve fitting to obtain EC50s. The minimum significant ratio (MSR) was determined to evaluate assay reproducibility (Eastwood et al., (2006) J Biomol Screen, 11: 253-261). The overall MSR was determined to be 2.1 and a moving MSR (last six run MSR overtime) has been <2.
(§3) The compound of Example 40 was tested for its impact on proliferation of a panel of cancer cell line types (with specific cell lines tested) as set out in (Table 2). […] Cell proliferation data were analyzed as described above in the MX-1 proliferation assay to obtain the EC50 for the compounds reported in Table 2.

NCI-H929 = test: Proliferation panel assay, NCI-H929; format: cell-based; conditions: Homo sapiens, 120 h; Multiple Myeloma, NCI-H929, 5 days; read-out: Cellular Proliferation EC50
Experimental: as §1, §2, §3

H1975 = test: Proliferation panel assay, H1975; format: cell-based; conditions: Homo sapiens, NCI-H1975, 120 h; NSCLC, H1975, 5 days; read-out: Cellular Proliferation EC50
Experimental: as §1, §2, §3

[2] = test system: LPS induced IL-6 production; test: LPS (lipopolysaccharide) induced IL-6 production mouse assay; format: in vivo; conditions: mice, one hour before LPS, serum 2 hours after LPS
Experimental: Compounds of the Examples listed in Table 8 were assayed for their ability to inhibit LPS (lipopolysaccharide) induced IL-6 production in mice. Severe combined immunodeficient female mice (8 per group) received an intraperitoneal challenge of lipopolysaccharide (2.5 mg/kg, L2630 E. coli 0111:B4) one hour after oral administration (PO) or intraperitoneal administration (IP) of compounds in a solution of 2% ethanol, 5% Tween-80, 20% PEG-400 and 73% (0.2% hydroxypropylmethylcellulose in water). Mice were euthanized 2 hours after lipopolysaccharide injection, blood was removed by cardiac puncture, and then the serum harvested from the blood samples was frozen at −80° C. On the day of the assay the serum samples were brought to room temperature and then diluted 1:20 in phosphate-buffered saline containing 2% bovine serum albumin. Interleukin-6 measurements were performed using a cytokine assay from Meso Scale Discovery (Gaithersburg, Md.) for mouse serum analysis according to the manufacturer's protocol and read on a SECTOR Imager 6000 (Meso Scale Discovery, Gaithersburg, Md.) instrument. Statistical analysis was performed using Prism software (version 5.0) incorporating Dunnett's one way ANOVA. The IL-6 mean and standard deviation of the group of vehicle treated animals were compared with the IL-6 mean and standard deviation of the group treated with drug. A p value <0.05 means that there is less than a 5% probability that the mean values in the two groups are equal.

HPAC = test: Proliferation panel assay, HPAC; format: cell-based; conditions: Homo sapiens, 120 h, Pancreas, 5 days, read-out: Cellular Proliferation EC50
Experimental: as §1, §2, §3

GEO = test: Proliferation panel assay, GEO; format: cell-based; conditions: 120 h, Colon, 5 days, read-out: Cellular Proliferation EC50
Experimental: as §1, §2, §3

FaDu = test: Proliferation panel assay, FaDu; format: cell-based; conditions: Homo sapiens, 120 h, Head & Neck, 5 days, read-out: Cellular Proliferation EC50
Experimental: as §1, §2, §3

**Q.** For `Cc1[nH]c(-c2cc(NS(C)(=O)=O)ccc2Oc2ccccc2)c2c1C(=O)CCC2` [Example 40, N-[3-(3-methyl-4-oxo-4,5,6,7-tetrahydro-2H-isoindol-1-yl)-4-phenoxyphenyl]methanesulfonamide], which “% TGI (tumor growth inhibition)” value ([1]; 10 mg/kg/day PO, BIDx14, based on day 31) is on record?
**A.** 11%

**Q.** And the “% TGD (tumor growth delay)” value ([1]; 10 mg/kg/day PO, BIDx14, endpoint 1000 mm^3)?
**A.** 25%

**Q.** What about the “% TGI (tumor growth inhibition)” value ([1]; 10 mg/kg/day PO, QDx14, based on day 31) of the same compound?
**A.** 16%

**Q.** What about the “% TGD (tumor growth delay)” value ([1]; 10 mg/kg/day PO, QDx14, endpoint 1000 mm^3) of the same compound?
**A.** 25%

**Q.** And the “% TGI (tumor growth inhibition)” value ([1]; 30 mg/kg/day PO, BIDx14, based on day 31)?
**A.** 31* %

**Q.** And the “% TGD (tumor growth delay)” value ([1]; 30 mg/kg/day PO, BIDx14, endpoint 1000 mm^3)?
**A.** 88* %

**Q.** And the “% TGI (tumor growth inhibition)” value ([1]; 30 mg/kg/day PO, QDx14, based on day 31)?
**A.** 27* %

**Q.** What about the “% TGD (tumor growth delay)” value ([1]; 30 mg/kg/day PO, QDx14, endpoint 1000 mm^3) of the same compound?
**A.** 63%

**Q.** And the “% TGI (tumor growth inhibition)” value ([1]; 100 mg/kg/day PO, BIDx14, based on day 31)?
**A.** 43** %

**Q.** What about the “% TGD (tumor growth delay)” value ([1]; 100 mg/kg/day PO, BIDx14, endpoint 1000 mm^3) of the same compound?
**A.** 175*** %

**Q.** And the “% TGI (tumor growth inhibition)” value ([1]; 100 mg/kg/day PO, QDx14, based on day 31)?
**A.** 41** %

**Q.** And the “% TGD (tumor growth delay)” value ([1]; 100 mg/kg/day PO, QDx14, endpoint 1000 mm^3)?
**A.** 88*** %

**Q.** And the EC50 (Ramos)?
**A.** 340 nM

**Q.** What about the EC50 (NCI-H929) of the same compound?
**A.** 41 nM

**Q.** What about the EC50 (H1975) of the same compound?
**A.** 180 nM

**Q.** And the “% inhibition of LPS induced IL-6 production” value (shortened to “% inhibition”) ([2]; 3 mg/kg (PO))?
**A.** 28.7 at 3 mg/kg (PO) %

**Q.** What about the “% inhibition” value ([2]; 10 mg/kg (PO)) of the same compound?
**A.** 52.4 at 10 mg/kg (PO) %

**Q.** What about the “% inhibition” value ([2]; 30 mg/kg (PO)) of the same compound?
**A.** 72.7 at 30 mg/kg (PO) %

**Q.** What about the “% inhibition” value ([2]; 50 mg/kg (IP)) of the same compound?
**A.** 84.7 at 50 mg/kg (IP) %

**Q.** And the EC50 (HPAC)?
**A.** 290 nM

**Q.** And the EC50 (GEO)?
**A.** 380 nM

**Q.** What about the EC50 (FaDu) of the same compound?
**A.** 180 nM
